Measured values from patent US20220298222A1, “COMBINATION THERAPY OF A T CELL THERAPY AND AN ENHANCER OF ZESTE HOMOLOG 2 (EZH2) INHIBITOR AND RELATED METHODS” (Juno Therapeutics, Inc., priority 2019, published 2022).

How the values were obtained:
[1] = system: H3K27Me3 in GCB (WSU-DLCL2, Farage, KARPAS-422, SU-DHL-5) and ABC (SU-DHL-2, OCI-LY3) DLBCL cell lines; experiment: H3K27Me3 levels by Western blot in GCB and ABC DLBCL cell lines, two EZH2 inhibitors; type: cell-based; conditions: 6 days; 0.1 or 1.0 μM; all GCB and ABC cell lines tested
[2] = system: GCB cell lines (WSU-DLCL2, Farage, KARPAS-422, and SU-DHL-5); experiment: Cell viability by ATP luminescence-based assay, GCB cell lines; conditions: 6 days; 1.0 μM EPZ-6438, 0.1 μM or 1.0 μM CPI-1205; mutant and wild type GCB cell lines
Method: (§1) Cell viability was determined based on the amount of ATP quantified by a luminescence-based assay.

[3] = system: ABC cell lines (SU-DHL-2 and OCI-LY3); experiment: Cell viability by ATP luminescence-based assay, ABC cell lines; conditions: 6 days, 1.0 μM EPZ-6438, 0.1 μM or 1.0 μM CPI-1205, wild type EZH2
Method: as §1

[4] = cited from earlier work

Row | Compound | H3K27Me3 levels (Western blot) [1] | cell viability (ATP) [2] | cell viability (ATP) [3] | recommended phase II dose ([4]; twice daily (BID) or three times daily (TID) for 28-day cycles, subjects with R/R B-cell non-Hodgkin lymphoma or an advanced solid tumor) [mg] | maximum tolerated dose (MTD) ([4]; twice daily, human subjects, R/R B-cell lymphoma, 28-day cycles) [milligrams]
1 | COc1cc(C)[nH]c(=O)c1CNC(=O)c1c(C)n([C@H](C)C2CCN(CC(F)(F)F)CC2)c2ccccc12 [CPI-1205] | decreased H2K27Me3 levels | decreased cell viability | resistant | – | –
2 | CCN(c1cc(-c2ccc(CN3CCOCC3)cc2)cc(C(=O)NCc2c(C)cc(C)[nH]c2=O)c1C)C1CCOCC1 [tazemetostat] | – | – | – | 800 | 800
